Experiments:
[1] = tested on: B. subtilis 168; test: fitness (endpoint OD595 vs no drug) (fraction); higher = more growth
Summary of the method: (§1)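 Volumes were 30 µl per well, or 55 µl for S. pneumoniae, in 384-well plates inoculated at OD595 0.01. Media were TSB, LB Lennox or CY at 37 °C, and OD595 was read every 30 min for 14 h with first-reading background subtraction. Fitness is the ratio of optical density at stationary-phase entry to the robust mean of no-drug controls. That ratio is capped at 1.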

[2] = tested on: S. pneumoniae D39V; test: as above
Summary of the method: as §1

N[C@@H]1CONC1=O [Cycloserine D] + C[C@H]1c2cccc(O)c2C(=O)C2=C(O)[C@]3(O)C(=O)C(C(N)=O)=C(O)[C@@H](N(C)C)[C@@H]3[C@@H](O)[C@@H]21 [Doxycycline]
fitness, [1]
Conditions | first compound 0.125 µg/mL | first compound 0.25 µg/mL | first compound 0.5 µg/mL
partner 0.02 µg/mL | 0.909 | 0.903 | 0.898
partner 0.04 µg/mL | 0.738 | 0.732 | 0.709

C[C@@H](O)[C@H]1C(=O)N2C(C(=O)O)=C(SCCNC=N)C[C@H]12 [Imipenem] + CC1=C(C(=O)O)N2C(=O)[C@@H](NC(=O)[C@H](N)c3ccccc3)[C@H]2SC1 [Cephalexin]
fitness, [2], one replicate
Conditions | first compound 0.005 µg/mL | first compound 0.01 µg/mL | first compound 0.02 µg/mL
partner 0.125 µg/mL | 0.899 | 0.909 | 0.942
partner 0.25 µg/mL | 0.874 | 0.946 | 0.938
partner 0.5 µg/mL | 0.943 | 0.978 | 0.95

fitness, [2]
Conditions | first compound 0.0065 µg/mL | first compound 0.013 µg/mL | first compound 0.026 µg/mL
partner 1 µg/mL | 0.278 | 0.4 | 0.176
partner 2 µg/mL | 0.0001 | 0.0222 | 0.0128
partner 4 µg/mL | 0.0361 | 0.0148 | 0.0072

C[C@@H](O)[C@H]1C(=O)N2C(C(=O)O)=C(SCCNC=N)C[C@H]12 [Imipenem] + CO[C@@]12[C@H](COC(N)=O)C3=C(C(=O)C(C)=C(N)C3=O)N1C[C@@H]1N[C@@H]12 [Mitomycin C]
[2]
Conditions | fitness
first compound 0.005 µg/mL, partner 0.001075 µg/mL | 0.906
first compound 0.005 µg/mL, partner 0.00215 µg/mL | 0.923
first compound 0.005 µg/mL, partner 0.0043 µg/mL | 0.815
first compound 0.0065 µg/mL, partner 0.002 µg/mL | 0.797
first compound 0.0065 µg/mL, partner 0.004 µg/mL | 0.657
first compound 0.01 µg/mL, partner 0.001075 µg/mL | 0.921
first compound 0.01 µg/mL, partner 0.00215 µg/mL | 0.876
first compound 0.01 µg/mL, partner 0.0043 µg/mL | 0.804
first compound 0.013 µg/mL, partner 0.002 µg/mL | 0.583
first compound 0.013 µg/mL, partner 0.004 µg/mL | 0.731
first compound 0.013 µg/mL, partner 0.008 µg/mL | 0.56
first compound 0.02 µg/mL, partner 0.001075 µg/mL | 0.937
first compound 0.02 µg/mL, partner 0.00215 µg/mL | 0.919
first compound 0.02 µg/mL, partner 0.0043 µg/mL | 0.78
first compound 0.026 µg/mL, partner 0.002 µg/mL | 0.737
first compound 0.026 µg/mL, partner 0.004 µg/mL | 0.668
first compound 0.026 µg/mL, partner 0.008 µg/mL | 0.417

O=C1CN(/N=C/c2ccc([N+](=O)[O-])o2)C(=O)N1 [Nitrofurantoin] + CCC(C)C1C(=O)NC(=C)C(=O)NC(C(=O)NC(CSCC(C(=O)N1)NC(=O)/C(=C/C)/NC(=O)C(C(C)CC)N)C(=O)NC2C(SCC(NC(=O)CNC(=O)C3CCCN3C2=O)C(=O)NC(CCCCN)C(=O)NC4C(SCC(NC(=O)CNC(=O)C(NC(=O)C(NC(=O)C(NC(=O)CNC4=O)C)CC(C)C)CCSC)C(=O)NC(CC(=O)N)C(=O)NC(CCSC)C(=O)NC(CCCCN)C(=O)NC5C(SCC6C(=O)NC(C(=O)NC(CSC(C(C(=O)N6)NC(=O)C(NC5=O)C)C)C(=O)NC(CO)C(=O)NC(C(C)CC)C(=O)NC(CC7=CN=CN7)C(=O)NC(C(C)C)C(=O)NC(=C)C(=O)NC(CCCCN)C(=O)O)CC8=CN=CN8)C)C)C)CC(C)C [Nisin]
[2], main component drawn
Conditions | fitness
first compound 1.285 µg/mL, partner 1.6 µg/mL | 0.0025
first compound 1.285 µg/mL, partner 3.2 µg/mL | 0.0467
first compound 1.285 µg/mL, partner 6.4 µg/mL | 0.0134
first compound 2 µg/mL, partner 0.4275 µg/mL | 0.988
first compound 2 µg/mL, partner 0.855 µg/mL | 0.991
first compound 2 µg/mL, partner 1.71 µg/mL | 0.075
first compound 2.57 µg/mL, partner 1.6 µg/mL | 0.0197
first compound 2.57 µg/mL, partner 3.2 µg/mL | 0.0583
first compound 2.57 µg/mL, partner 6.4 µg/mL | 0.0339
first compound 4 µg/mL, partner 0.4275 µg/mL | 0.971
first compound 4 µg/mL, partner 0.855 µg/mL | 0.993
first compound 4 µg/mL, partner 1.71 µg/mL | 0.0559
first compound 8 µg/mL, partner 0.4275 µg/mL | 0.85
first compound 8 µg/mL, partner 1.71 µg/mL | 0.0537

[2], first compound 5.14 µg/mL, one replicate, main component drawn
Conditions | fitness
partner 1.6 µg/mL | 0.0172
partner 3.2 µg/mL | 0.0456
partner 6.4 µg/mL | 0.0152

C/C(=C\C(=O)OCCCCCCCCC(=O)O)C[C@@H]1OC[C@H](C[C@@H]2O[C@H]2[C@@H](C)[C@H](C)O)[C@@H](O)[C@H]1O [Pseudomonic acid] + CCC(C)C1C(=O)NC(=C)C(=O)NC(C(=O)NC(CSCC(C(=O)N1)NC(=O)/C(=C/C)/NC(=O)C(C(C)CC)N)C(=O)NC2C(SCC(NC(=O)CNC(=O)C3CCCN3C2=O)C(=O)NC(CCCCN)C(=O)NC4C(SCC(NC(=O)CNC(=O)C(NC(=O)C(NC(=O)C(NC(=O)CNC4=O)C)CC(C)C)CCSC)C(=O)NC(CC(=O)N)C(=O)NC(CCSC)C(=O)NC(CCCCN)C(=O)NC5C(SCC6C(=O)NC(C(=O)NC(CSC(C(C(=O)N6)NC(=O)C(NC5=O)C)C)C(=O)NC(CO)C(=O)NC(C(C)CC)C(=O)NC(CC7=CN=CN7)C(=O)NC(C(C)C)C(=O)NC(=C)C(=O)NC(CCCCN)C(=O)O)CC8=CN=CN8)C)C)C)CC(C)C [Nisin]
fitness, [2], main component drawn
Conditions | partner 0.4275 µg/mL | partner 0.855 µg/mL | partner 1.6 µg/mL | partner 1.71 µg/mL | partner 3.2 µg/mL | partner 6.4 µg/mL
first compound 0.03 µg/mL | 0.935 | 0.928 | – | 0.0945 | 0.0435 | 0.0142
first compound 0.06 µg/mL | 0.858 | 0.81 | – | 0.0658 | 0.0566 | 0.0188
first compound 0.12 µg/mL | 0.51 | 0.21 | 0.174 | 0.0732 | 0.0384 | 0.0513

C/C(=C\C(=O)OCCCCCCCCC(=O)O)C[C@@H]1OC[C@H](C[C@@H]2O[C@H]2[C@@H](C)[C@H](C)O)[C@@H](O)[C@H]1O [Pseudomonic acid] + O=C1CN(/N=C/c2ccc([N+](=O)[O-])o2)C(=O)N1 [Nitrofurantoin]
fitness, [2]
Conditions | partner 1.285 µg/mL | partner 2 µg/mL | partner 2.57 µg/mL | partner 4 µg/mL | partner 8 µg/mL
first compound 0.03 µg/mL | 0.916 | 0.854 | 0.942 | 0.872 | 0.793
first compound 0.06 µg/mL | 0.815 | 0.773 | 0.819 | 0.706 | 0.718
first compound 0.12 µg/mL | 0.616 | 0.563 | 0.605 | 0.59 | 0.515

[2], partner 5.14 µg/mL, one replicate
Conditions | fitness
first compound 0.03 µg/mL | 0.912
first compound 0.06 µg/mL | 0.8
first compound 0.12 µg/mL | 0.556

Source: the supplement of paper PMC10627819
